# “Also recorded” adds a separate entry of the source.
# Columns and labels:
# Type in all cases: cell-based
# [1] = system: human coronary smooth muscle cells (HCASMCs); assay: In vitro scratch wound closure, HCASMCs; conditions: for wound closure (scratch wound assay): HCASMCs
# Protocol: (§1) The effect of FOL-026 peptide treatment on smooth muscle cell proliferation (FIG. 25a) and apoptosis (FIG. 25c) induced with low-oxygen condition was evaluated with the uptake of BrdU (n=10 per group) and active caspase-3/-7 (n=6-8 per group) separately. H2O2 measurement (FIG. 25b) of smooth muscle cells pre-incubated with FOL-26 peptides after 50 ug/ml oxidized Low-density Lipoprotein (oxLDL) stimulation for 2 hours (n=6-7 per group). Representative images of scratch wound assay in vitro are shown (FIG. 26a) and the ability of wound healing (FIG. 26b) in human coronary smooth muscle cells (HCASMCs) treated with FOL-026 peptides was measured by image J software (n=10 per group). Scale bar=150 um. Data are presented as means±SEM and acquired from 3 to 4 independent replicate tests. *P<0.05, **P<0.01, ***P<0.001, ****P<0.0001 by one-way ANOVA and Dunnett's post-hoc test.
# qRT-PCR analysis of NRP-1 mRNA expression in HCASMCs with small interfering RNA transfection for 48 hours (n=4) (FIG. 27a). The assessment of BrdU incorporation (FIG. 27b, n=10-11) and caspase-3/-7 activation (FIG. 27c, n=3-10) in siRNA-NC/siNRP-1-transfected […] treated with indicated concentration of FOL-026 peptide. The wound closure rate (FIG. 28b) of HCASMCs in siRNA-NC and siNRP-1 group stimulated with increasing concentration of FOL-026 peptide was quantified by image J software (n=9-12 per group). Scale bar=150 um. Data are presented as means±SEM and acquired from 3 to 4 independent replicate tests. *P<0.05, **P<0.01, ***P<0.001, ****P<0.0001 by Student's t test for A, two-way ANOVA followed with Sidak's and Dunnett's multiple comparisons test.
# (§2) The effect of FOL-005 peptide on smooth muscle cell proliferation (FIG. 30a) was determined with BrdU incorporation in peptide-treated human coronary smooth muscle cells (HCASMCs). Scratch wound assay (FIG. 30b) of HCASMCs incubated with FOL-005 peptides for 5 hours was measured by image J software (n=10-12 per group) and representative pictures of smooth muscle cell migration into an in vitro scratch injury were shown (FIG. 30c). Scale bar=150 um.
# [2] = system: human coronary artery smooth muscle cells (HCASMCs); assay: BrdU cell proliferation in HCASMCs; conditions: for smooth muscle cell proliferation (BrdU incorporation): addition of the peptide; for vascular smooth muscle cell proliferation (DNA synthesis, uptake of BrdU, O.D. 450 nm): 10 nM, 100 nM, 1000 nM, compared to control
# Protocol: Cell proliferation was evaluated with BrdU Cell Proliferation Elisa Kit (Abcam, UK). After incubation at 37° C. overnight with respective complete medium, for NRP-1 knock down-relative experiments, HUVECs and HCASMCs on 96-well plates were transfected with siRNA/siRNA-NC directly; for test polypeptide stimulations, HUVECs and HCASMCs were starved with low-serum condition for additional 24 hours and 48 hours before treatments. At 32 hours after transfection or polypeptide stimulations, cells were cultured with BrdU reagent for another 16 hours to determine cell proliferation. Subsequent steps were performed as manufacturer's instructions and data were read by Wallac 1420 Victor 2 (Perkin Elmer, USA).
# as §1, §2
# [3] = system: Human umbilical cord endothelial cells (HUVECs); assay: sFasL-induced apoptosis, caspase 3 and 7 activation, HUVECs; conditions: 10 nM, 100 nM, 1000 nM
# Protocol: (§3) Human Umbilical Vein Endothelial Cells (HUVECs) and Human Coronary Artery Smooth Muscle Cells (HCASMCs) were purchased from Thermo Fisher. Cells were grown in Medium 200 containing 2% Low Serum Growth Supplement and Medium 231 with 5% Smooth Muscle Growth Supplement (Invitrogen, CA, USA) respectively with addition of Antibiotic-Antimycotic (1%, Invitrogen, CA, USA). Test polypeptide and sFasL (PeproTech, NJ, USA) were dissolved in the respective complete medium.
# (§4) Caspase-Glo 3/7 Assay (Promega, USA) was performed to evaluate cell apoptosis. HUVECs and HCASMCs were seeded into 96-well plates at a density of 3-5×10^3 per well. For additional NRP-1 on cells transfected siRNA, NRP-1 was added 24 hours after transfection and the mixture of Caspase-Glo 3/7 was added 48 hours after polypeptide stimulations. Subsequent steps were performed as manufacturer's instructions using the FOL26 and FOL56 as test compounds. Data were read by Wallac 1420 Victor 2 (Perkin Elmer, USA).
# [4] = system: human coronary artery smooth muscle cells (HCASMCs); assay: sFasL-induced apoptosis, caspase 3 and 7 activation, HCASMCs; conditions: 10 nM, 100 nM, 1000 nM
# Protocol: as §3, §4
# [5] = system: Human umbilical cord endothelial cells (HUVECs); assay: Gene expression by PCR in endothelial cells; conditions: for expression of PECAM-1 (CD31): HUVECs
# Protocol: Human umbilical cord endothelial cells were first treated with a scramble non-coding siRNA (NC) or siRNA for NRP-1, subsequently treated with FOL26 in concentrations of 10 nM, 100 nM, and 1000 nM, and endothelial tube formation and the total master segemnts were measured using ImageJ. gene expression of PECAM-1 (CD31) analyzed.
# Cells on 6-well plates were washed with cold DPBS (Gibco, USA) and homogenized in Trizol reagent (Invitrogen, CA, USA). Total RNA was extracted using PureLink RNA Mini Kit (Invitrogen, CA, USA), followed by nucleic acid quantification with NanoDrop 2000c (Thermo Fisher Scientific, USA). To determine mRNA expression of target genes, real-time qPCR was performed using by KAPA SYBR FAST One-Step qRT-PCR Master Mix Kit (KAPA Biosystems, USA) on LightCycler480 system (Roche, Mannheim, Germany). All primers were purchased from miScript Primer Assays (Qiagen, Valencia, CA) and GAPDH mRNA expression of each sample was used for normalization. Cells on 6-well plates were washed with cold DPBS and lysed with the mixture of lysis buffer and protease inhibitors on ice, then centrifuged at 15,000 g for 20 min at 4° C. Supernatant was performed to measure the protein concentration using BCA Protein Assay Kit (Thermo Fisher Scientific, USA). Protein sample was loaded onto SDS-PAGE gels and separated with electrophoresis, followed by transferred to PVDF membranes (Millipore, USA). Membranes were blocked with 5% nonfat milk. Primary antibodies (Abcam, UK) and secondary antibodies were performed to incubate with membranes at 4° C. overnight and at room temperature for 1 hour respectively. […]
Sequence,wound closure (scratch wound assay) [1],smooth muscle cell proliferation (BrdU incorporation) [2],sFasL-induced apoptosis (caspase 3 and 7) [3],"vascular smooth muscle cell proliferation (DNA synthesis, uptake of BrdU, O.D. 450 nm) [2]",sFasL-induced apoptosis (caspase 3 and 7) [4],"expression of PECAM-1 (CD31) ([5]; 10 nM, 100 nM, 1000 nM tested)","wound closure after NRP-1 knock-down (Example 11) ([1]; siRNA-NC/siNRP-1-transfected cells, printed as HUVECs, increasing concentration, 5 hours)",sFasL-induced apoptosis (caspase 3 and 7) ([3]; listed as FOL26),"vascular smooth muscle cell proliferation (DNA synthesis, uptake of BrdU, O.D. 450 nm) ([2]; listed as FOL26)",sFasL-induced apoptosis (caspase 3 and 7) ([4]; listed as FOL26),expression of PECAM-1 (CD31) ([5]; 100 nM and 1000 nM),angiogenesis related genes ([5]; endothelial cells)
VDTYDGDISVVYGLR [FOL-005],accelerate HCASMC wound closure,increases,,,,,,,,,,
AEIDSIELSYGIK [FOL56],,,"reduced sFasL-induced apoptosis; also recorded: capable of inhibiting, or trended towards inhibiting apoptosis",significant increase in proliferation; also recorded: increases proliferation at all concentrations,"reduced sFasL-induced apoptosis; also recorded: capable of inhibiting, or trended towards inhibiting apoptosis",increased expression of PECAM-1,,,,,,
VDTYDGGISVVYGLR [FOL-026],accelerates wound closure,induces smooth muscle cell proliferation,,,,increased expression of PECAM-1,positive effect on wound closure,reduced sFasL-induced apoptosis; also recorded: capable of reversing the sFasL-induced apoptosis,significant increase in proliferation; also recorded: increase in O.D. (450 nm),reduced sFasL-induced apoptosis; also recorded: capable of reversing the sFasL-induced apoptosis,increased,induces upregulation
